Patent publication US10202343B2, “MIF modulators” (YALE UNIVERSITY, priority 2008, dated 2019)
pIC50: −log10 of the molar value. Read-outs that look alike come from different tables or passages of the source. Each block holds one compound with its values, some of them ahead of it.

How the values were obtained:
[1] = target: T1, MIF tautomerase activity (Homo sapiens, UniProt P14174); conditions: literature, Cheng & Al-Abed 2006; cited from earlier work
T1 sequence (P14174 2-115 limits assumed): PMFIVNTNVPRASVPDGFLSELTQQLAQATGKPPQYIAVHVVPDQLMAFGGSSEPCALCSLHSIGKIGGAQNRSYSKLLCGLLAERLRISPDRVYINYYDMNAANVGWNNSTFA

[2] = target: T2, MIF-CD74 Binding (biotin-labeled recombinant human MIF, recombinant human MIF receptor CD74 ectodomain) (Homo sapiens, UniProt P14174); assay: MIF-CD74 binding (capture) assay; parameters: concentration of C74 % MaxInhib (number after @): unit not given here; conditions: for CD74 % MaxInhib / C74 % MaxInhib: number before @; for concentration of C74 % MaxInhib (number after @) / C74 % MaxInhib: Table 18
T2 sequence (P14174 2-115 limits assumed): T1 sequence (P14174 2-115 limits assumed)

[3] = target: T3, Human MIF (MIF tautomerase activity) (Homo sapiens, UniProt P14174); assay: HPP tautomerase assay; format: biochemical; conditions: for HPP Max Inhib: number before @
T3 construct: made in house
T3 sequence (P14174 2-115 limits assumed): T1 sequence (P14174 2-115 limits assumed)

[4] = press release, cited from earlier work
[5] = tested on: ovarian cancer cell line; assay: growth of an ovarian cancer cell line; format: cell-based
Description: KSP inhibitor ARRY-520 is used as a substitute for Paclitaxel in Type I ovarian cancer cells. J Transl Med. 7:63.

[6] = tested on: MIF-dependent signal transduction (ERK1/2 phosphorylation); assay: MIF-dependent signal transduction in cells (ERK1/2 phosphorylation); format: cell-based; conditions: compared to isoxazoline-1
Method: Two additional assays were performed on compounds according to the present invention. In the first, MIF-dependent signal transduction in cells as evidenced by a reduction in ERK1/2 phosphorylation and its inhibitory action is compared to the known small molecule MIF antagonist, isoxazoline-1 following the assay reported in Leng L., Metz C, Fang Y, Xu J, Donnelly S, Baugh J, Delonery T, Chen Y, Mitchell R A, and Bucala R. 2003. MIF Signal Transduction Initiated by Binding to CD74. J Exp Med 197, 1467-1476.

Structure (SMILES): CC(C)(C)OC(=O)C[C@H]1CC(c2ccc(O)c(F)c2)=NO1 [(R)-17]
potency (inhibition of MIF tautomerase activity) [1]: 0.55 µM

activity in the capture assay [2]: inactive | pIC50 ([3]; read-out: inhibitor in the HPP tautomerase assay): 5.35
Structure (SMILES): Ic1cc(-c2ccccc2)ncn1 [Compound 4-IPP, 4-iodo-6-phenylpyrimidine, reference compound]
anti-tumor activity ([4]; by blocking tumor-specific angiogenesis): exhibits anti-tumor activity | safety profile ([4]; laboratory studies): favorable safety profile

Structure (SMILES): N#Cc1ccc2c(=O)n(-c3ccc(Cl)cc3)sc2c1 [Compound 37]
Capture % Max. Inhib. ([2]; Table 3): 16% | CD74 % MaxInhib ([2]; Table 6, data cell c8): 16% | pIC50 ([3]; Table 3, read-out: HPP IC50): 5.51 | pIC50 ([3]; Table 6, data cell c7, read-out: HPP IC50): 5.51 | activity in the ovarian cancer assay (growth inhibition) [5]: significant activity

concentration of CD74 % MaxInhib (number after @) ([2]; Table 4): 0.0078 µM | pIC50 ([3]; Table 4, read-out: HPP IC50): 8.00
Structure (SMILES): Cc1ccc2oc(=O)n(Cc3cccc(O)c3)c2c1 [Compound 098]
inhibitory action on MIF-dependent ERK1/2 phosphorylation [6]: significant inhibitory action | activity in the ovarian cancer assay (growth inhibition) [5]: significant activity

concentration of CD74 % MaxInhib (number after @) ([2]; Table 13): 0.12 µM | CD74 % MaxInhib ([2]; Table 13): 17% | concentration of HPP Max Inhib (number after @) ([3]; Table 13): 700 µM | HPP Max Inhib ([3]; Table 13, data cell c5): 33%
Structure (SMILES): O=C(c1cc2ccccc2o1)c1cc2cc(F)ccc2o1 [MIF-073]

concentration of C74 % MaxInhib (number after @) [2]: 0.24 | C74 % MaxInhib [2]: 8% | concentration of HPP Max Inhib (number after @) ([3]; Table 18): 1000 | HPP Max Inhib ([3]; Table 18): 40%
Structure (SMILES): COc1cccc(Cc2cn(-c3ccc(O)cc3)nn2)c1 [MIF-074]

concentration of C74 % MaxInhib (number after @) [2]: 0.0078 | C74 % MaxInhib [2]: 12% | pIC50 ([3]; Table 18, read-out: HPP IC50): 3.10
Structure (SMILES): COc1cccc(C(=O)c2cn(-c3ccc(O)cc3)nn2)c1 [MIF-076]

concentration of CD74 % MaxInhib (number after @) ([2]; Table 13): 0.24 µM | CD74 % MaxInhib ([2]; Table 13): 16% | concentration of HPP Max Inhib (number after @) ([3]; Table 13): 1000 µM | HPP Max Inhib ([3]; Table 13, data cell c5): 30%
Structure (SMILES): Cc1ccc2cc(C(=O)c3cc4ccccc4o3)oc2c1 [MIF-077]

concentration of C74 % MaxInhib (number after @) [2]: 0.078 | C74 % MaxInhib [2]: 30% | pIC50 ([3]; Table 18, read-out: HPP IC50): 3.32
Structure (SMILES): Cc1cccc(Cc2cn(-c3ccc(O)cc3)nn2)c1 [MIF-079]

concentration of CD74 % MaxInhib (number after @) ([2]; Table 14): 0.078 µM | CD74 % MaxInhib ([2]; Table 14): 12% | concentration of HPP Max Inhib (number after @) ([3]; Table 14): 3 µM | HPP Max Inhib ([3]; Table 14): 33%
Structure (SMILES): COc1ccc2cc(C(=O)N3CCc4ccccc43)oc2c1 [MIF-083]

concentration of C74 % MaxInhib (number after @) [2]: 0.078 | C74 % MaxInhib [2]: 36% | pIC50 ([3]; Table 18, read-out: HPP IC50): 4.19
Structure (SMILES): COc1ccc(Cc2cn(-c3ccc(O)cc3)nn2)cc1 [MIF-086]

concentration of C74 % MaxInhib (number after @) [2]: 0.078 | C74 % MaxInhib [2]: 23% | pIC50 ([3]; Table 18, read-out: HPP IC50): 3.16
Structure (SMILES): Oc1ccc(Cc2cn(-c3ccc(O)cc3)nn2)cc1 [MIF-087]

concentration of CD74 % MaxInhib (number after @) ([2]; Table 14): 0.24 µM | CD74 % MaxInhib ([2]; Table 14): 30% | concentration of HPP Max Inhib (number after @) ([3]; Table 14): 5 µM | HPP Max Inhib ([3]; Table 14): 23%
Structure (SMILES): COc1ccc2oc(C(=O)N3CCc4ccccc43)cc2c1 [MIF-088]

concentration of CD74 % MaxInhib (number after @) ([2]; Table 14): 0.12 µM | CD74 % MaxInhib ([2]; Table 14): 30% | concentration of HPP Max Inhib (number after @) ([3]; Table 14): 1 µM | HPP Max Inhib ([3]; Table 14): 19%
Structure (SMILES): O=C(c1cc2cc(F)ccc2o1)N1CCc2ccccc21 [MIF-089]

concentration of C74 % MaxInhib (number after @) [2]: 0.078 | C74 % MaxInhib [2]: 22% | pIC50 ([3]; Table 18, read-out: HPP IC50): 4.15
Structure (SMILES): COc1ccc(Cc2cn(-c3ccc(O)cc3)nn2)cc1OC [MIF-090]

concentration of CD74 % MaxInhib (number after @) ([2]; Table 14): 0.95 µM | CD74 % MaxInhib ([2]; Table 14): 33% | pIC50 ([3]; Table 14, read-out: HPP IC50): 3.12
Structure (SMILES): Cc1ccc2c(c1)CCN2C(=O)c1cc2ccccc2o1 [MIF-094]

concentration of CD74 % MaxInhib (number after @) ([2]; Table 14): 0.039 µM | CD74 % MaxInhib ([2]; Table 14): 33% | pIC50 ([3]; Table 14, read-out: HPP IC50): 3.04
Structure (SMILES): Cc1ccc2c(c1)N(C(=O)c1cc3ccccc3o1)CC2 [MIF-095]

concentration of CD74 % MaxInhib (number after @) ([2]; Table 14): 1.87 µM | CD74 % MaxInhib ([2]; Table 14): 19% | pIC50 ([3]; Table 14, read-out: HPP IC50): 2.87
Structure (SMILES): O=C(c1cc2ccccc2o1)N1CCc2cc(F)ccc21 [MIF-096]

Structure (SMILES): O=c1oc2ccc(F)cc2n1Cc1cccc(O)c1 [MIF-108]
activity in the ovarian cancer assay (growth inhibition) [5]: significant activity
